The source of these data is US20140057950A1, “DERIVATIVES OF ENGLERIN FOR THE TREATMENT OF CANCER” (MAX-PLANCK-GESELLSCHAFT ZUR FORDERUNG DE WISSENSCHAFTEN E.V., priority 2010, published 2014).

The structures appear in SMILES notation.

This test has as its system human kidney carcinoma cell line A498. The test can be described thus: Cell proliferation assay (WST-1), A498. It is filed as cell-based. To be noted: A498 cells, 48 hours treatment. The procedure:
A498 cells were purchased from German Collection of Microorganisms and Cell Cultures, Germany. RC-124 cell line was purchased from CLS, Germany. Minimum Essential Medium (MEM), McCoy's 5a and Dulbecco's Modified Eagle's Medium (DMEM) were purchased from PAA, Austria. Fetal calf serum was purchased from Invitrogen, Germany. Non-essential amino acids and sodium pyruvate were purchased from Sigma-Aldrich, Germany.
The human kidney carcinoma cell line A498 was cultured in Minimum Essential Medium (MEM, with Earl's salts). The African green monkey cell line BSC-1 and the human embryonic kidney cell line HEK293 were maintained in Dulbecco's Modified Eagle's Medium (DMEM). The human kidney cell line RC-124 was cultured in McCoy's 5a medium. All media were supplemented with 10% fetal calf serum and penicillin and streptomycin. The cells were maintained at 37° C. in a 5% CO2 humidified atmosphere. Cells were discarded after 20 passages.
Cell proliferation was determined as a function of the metabolic activity by means of the cell proliferation reagent WST-1 (Roche, Mannheim Germany). 4000 cells were seeded in quadruplicates into the wells of 96 well plates and were allowed to attach for 24 hours prior to treatment with different compound concentrations for 48 hours. All samples contained 0.1% DMSO. After the treatment, the WST-1 reagent was added to the cells according to the manufacturer's protocol. The absorbance was measured with the Inifinite® M200 plate reader (Tecan, Austria) at 450/690 nm. Mean values (n=4) were used to generate dose-response curves by fitting to a four-parameter IC50 equation. The IC50 values for each compound were calculated with the software GraFit 5.0.
The following IC50 values were obtained for the human kidney carcinoma cell line A498. Very similar IC50 values were obtained for the African green monkey cell line BSC-1, the human embryonic kidney cell line HEK293 and the human kidney cell line RC-124.
(In general: Tetrazolium dyes change colour on reduction, which living cells bring about.)
The IC50 is the concentration that gives 50% inhibition. A low value points to greater potency in that assay. In the case of `CCC12C[C@@H](OC(=O)CO)[C@@](C)(O1)[C@@H]1CC[C@@H](C)[C@H]1[C@@H]2OC(=O)/C=C/c1ccccc1` [Compound 13], the IC50 lay within 0.5 to 5 µM. Next, `C[C@@H]1CC[C@@H]2[C@@H]1[C@H](OC(=O)/C=C/c1ccccc1)[C@]1(C)C[C@@H](OC(=O)CO)[C@@]2(C)O1` [Compound 14]: 0.5 to 5 µM; `CC(C)C12C[C@@H](OC(=O)CO)[C@@](C)(O1)[C@@H]1CC[C@@H](C)[C@H]1[C@@H]2OC(=O)/C=C/C1CCCCC1` [Compound 15]: < 0.03 µM. Next, `CC(C)C12C[C@@H](OC(=O)CO)[C@@](C)(O1)[C@@H]1CC[C@@H](C)[C@H]1[C@@H]2OC(=O)c1ccc2ccccc2c1` [Compound 16]: < 0.03 µM. Then `C/C(=C\C(=O)O[C@H]1[C@@H]2[C@H](C)CC[C@H]2[C@]2(C)OC1(C(C)C)C[C@H]2OC(=O)CO)c1ccccc1` [Compound 17], with < 0.03 µM.

As to `CC(C)C12C[C@@H](OC(=O)CO)[C@@](C)(O1)[C@@H]1CC[C@@H](C)[C@H]1[C@@H]2OC(=O)/C=C/c1ccc(F)cc1` [Compound 18], the IC50 was 0.5 to 5 µM. `CC(C)C12C[C@@H](OC(=O)CO)[C@@](C)(O1)[C@@H]1CC[C@@H](C)[C@H]1[C@@H]2OC(=O)/C=C/c1ccc(Cl)cc1` [Compound 19] yielded an IC50 of 0.5 to 5 µM. Compound `CC(C)C12C[C@@H](OC(=O)CO)[C@@](C)(O1)[C@@H]1CC[C@@H](C)[C@H]1[C@@H]2OC(=O)/C=C/c1ccc2c(c1)OCO2` [Compound 23] had an IC50 of 0.5 to 5 µM. Then `CC(C)C12C[C@@H](OC(=O)CO)[C@@](C)(O1)[C@@H]1CC[C@@H](C)[C@H]1[C@@H]2OC(=O)/C=C/c1c(F)cccc1Cl` [Compound 24], with 0.03 to 0.1 µM; and `C/C(=C\c1ccccc1)C(=O)O[C@H]1[C@@H]2[C@H](C)CC[C@H]2[C@]2(C)OC1(C(C)C)C[C@H]2OC(=O)CO` [Compound 26], with 0.5 to 5 µM. Next, `CC(C)C12C[C@@H](OC(=O)CO)[C@@](C)(O1)[C@@H]1CC[C@@H](C)[C@H]1[C@@H]2OC(=O)c1ccc(Cl)cc1` [Compound 29]: 0.5 to 5 µM; `CC(C)C12C[C@@H](OC(=O)CO)[C@@](C)(O1)[C@@H]1CC[C@@H](C)[C@H]1[C@@H]2OC(=O)c1ccc([N+](=O)[O-])cc1` [Compound 30]: 0.5 to 5 µM. Next, `CC(C)C12C[C@@H](OC(=O)CO)[C@@](C)(O1)[C@@H]1CC[C@@H](C)[C@H]1[C@@H]2OC(=O)c1ccc(Cl)c(Cl)c1` [Compound 31]: 0.1 to 0.5 µM.

As to `CC(C)[C@@]12C[C@@H](OC(=O)CO)C(C)(O1)[C@@H]1CC[C@@H](C)[C@H]1[C@@H]2OC(=O)c1ccc2c(c1)CCCC2` [Compound 36], the IC50 is < 0.03 µM.

As to `CC(C)[C@@]12C[C@@H](OC(=O)CO)C(C)(O1)[C@@H]1CC[C@@H](C)[C@H]1[C@@H]2OC(=O)C1CCc2ccccc2C1` (stereo partly drawn) [Compound 37], the IC50 was in the range of 0.03 to 0.1 µM. Turning to `CC(C)[C@@]12C[C@@H](OC(=O)CO)C(C)(O1)[C@@H]1CC[C@@H](C)[C@H]1[C@@H]2OC(=O)C1CCC2CCCCC2C1` (stereo partly drawn) [Compound 38], the IC50 is 0.03 to 0.1 µM.

With `Cc1c(C(=O)O[C@H]2[C@@H]3[C@H](C)CC[C@H]3C3(C)O[C@@]2(C(C)C)C[C@H]3OC(=O)CO)ccc2ccccc12` [Compound 39], the concentration for half-maximal inhibition (IC50) is < 0.03 µM. Next, `Cc1c(C(=O)O[C@H]2[C@@H]3[C@H](C)CC[C@H]3C3(C)O[C@@]2(C(C)C)C[C@H]3OC(=O)CO)ccc2c1CCCC2` [Compound 40]: < 0.03 µM; `CC(C)[C@@]12C[C@@H](OC(=O)CO)C(C)(O1)[C@@H]1CC[C@@H](C)[C@H]1[C@@H]2OC(=O)c1ccc(C2(C(F)(F)F)N=N2)cc1` [Compound 41]: 0.03 to 0.1 µM.

`COCC(=O)O[C@@H]1C[C@]2(C(C)C)OC1(C)[C@@H]1CC[C@@H](C)[C@H]1[C@@H]2OC(=O)/C=C/c1ccccc1` [Compound 43]: the IC50 fell in the range of 0.5 to 5 µM. Then `C#CCCCC(=O)OCC(=O)O[C@@H]1C[C@]2(C(C)C)OC1(C)[C@@H]1CC[C@@H](C)[C@H]1[C@@H]2OC(=O)/C=C/c1ccccc1` [Compound 44], with 0.1 to 0.5 µM; and `C#CCCCC(=O)O[C@@H]1C[C@]2(C(C)C)OC1(C)[C@@H]1CC[C@@H](C)[C@H]1[C@@H]2OC(=O)/C=C/c1ccccc1` [Compound 45], with 0.5 to 5 µM. Then `C#CCOCC(=O)O[C@@H]1C[C@]2(C(C)C)OC1(C)[C@@H]1CC[C@@H](C)[C@H]1[C@@H]2OC(=O)/C=C/c1ccccc1` [Compound 46], with 0.5 to 5 µM; and `CC(C)C12C[C@@H](OC(=O)[C@H](C)O)[C@@](C)(O1)[C@@H]1CC[C@@H](C)[C@H]1C2OC(=O)/C=C/c1ccccc1` (stereo partly drawn) [Compound 52], with 0.5 to 5 µM; and `CC(C)C12C[C@@H](OC(=O)[C@@H](C)O)[C@@](C)(O1)[C@@H]1CC[C@@H](C)[C@H]1C2OC(=O)/C=C/c1ccccc1` (stereo partly drawn) [Compound 53], with 0.1 to 0.5 µM.

The compound `CC(C)C12C[C@@H](OC(=O)[C@H](C)O)[C@@](C)(O1)[C@@H]1CC[C@@H](C)[C@H]1C2OC(=O)c1ccc2ccccc2c1` (stereo partly drawn) [Compound 54] came in with an IC50 of 0.1 to 0.5 µM. Next, `CC(C)C12C[C@@H](OC(=O)[C@@H](C)O)[C@@](C)(O1)[C@@H]1CC[C@@H](C)[C@H]1C2OC(=O)c1ccc2ccccc2c1` (stereo partly drawn) [Compound 55]: 0.03 to 0.1 µM. In the case of `C#CC[C@@H](O)C(=O)O[C@@H]1CC2(C(C)C)O[C@@]1(C)[C@@H]1CC[C@@H](C)[C@H]1C2OC(=O)c1ccc2c(c1)CCCC2` (stereo partly drawn) [Compound 56], the IC50 lay within 0.5 to 5 µM. The compound `C#CC[C@@H](O)C(=O)O[C@@H]1CC2(C(C)C)O[C@@]1(C)[C@@H]1CC[C@@H](C)[C@H]1C2OC(=O)c1ccc2ccccc2c1` (stereo partly drawn) [Compound 57] showed an IC50 of 0.5 to 5 µM. Then `C#CC[C@@H](O)C(=O)O[C@@H]1CC2(C(C)C)O[C@@]1(C)[C@@H]1CC[C@@H](C)[C@H]1C2OC(=O)c1ccc(C2(C(F)(F)F)N=N2)cc1` (stereo partly drawn) [Compound 58], with 0.5 to 5 µM.
